From US12180193B2, “Accelerating fibrosarcoma protein degrading compounds and associated methods of use” (Arvinas Operations, Inc., priority 2020, dated 2024) come the findings set out here.

Like-named read-outs stand apart in the source and are kept apart here.

The DC50 is the concentration at which degradation of the target reaches its halfway point. A word on the Dmax: it is the largest share of the target that was removed. Read a low Dmax as shallow degradation.

For one assay, the target named is T1, BRAF V600E (Homo sapiens, UniProt P15056, V600E).
T1 construct: expressed in transfected cells
T1 sequence (P15056 whole entry V600E): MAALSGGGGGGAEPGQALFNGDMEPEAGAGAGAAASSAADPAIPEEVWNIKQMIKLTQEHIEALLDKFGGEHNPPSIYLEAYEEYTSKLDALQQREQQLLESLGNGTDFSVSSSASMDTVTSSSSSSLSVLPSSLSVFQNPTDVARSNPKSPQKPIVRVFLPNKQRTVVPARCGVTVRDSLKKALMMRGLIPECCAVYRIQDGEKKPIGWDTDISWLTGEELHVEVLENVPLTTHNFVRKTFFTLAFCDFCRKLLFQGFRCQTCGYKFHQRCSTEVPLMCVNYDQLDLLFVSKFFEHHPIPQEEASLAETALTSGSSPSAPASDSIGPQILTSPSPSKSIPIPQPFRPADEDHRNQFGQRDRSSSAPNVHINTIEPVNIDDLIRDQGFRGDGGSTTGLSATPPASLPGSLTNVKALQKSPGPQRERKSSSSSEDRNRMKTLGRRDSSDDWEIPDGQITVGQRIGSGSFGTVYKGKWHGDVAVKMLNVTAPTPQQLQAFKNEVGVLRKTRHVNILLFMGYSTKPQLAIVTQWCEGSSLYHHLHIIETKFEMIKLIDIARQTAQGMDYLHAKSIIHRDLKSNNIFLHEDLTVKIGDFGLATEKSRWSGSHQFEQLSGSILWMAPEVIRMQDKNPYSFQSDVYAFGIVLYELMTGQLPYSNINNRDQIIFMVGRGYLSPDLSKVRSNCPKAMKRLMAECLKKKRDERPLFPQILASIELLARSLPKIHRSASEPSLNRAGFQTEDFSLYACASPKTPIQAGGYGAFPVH
Nature of the assay: Cellular assay of target protein degradation, T-Rex 293 cells stably transfected with HA-BRAF_V600E (HA immunofluorescence, high content imaging). It is filed as cell-based. The procedure, abridged: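 Doxycycline-induced (1 ng/mL) cells were treated 24 h at 37 °C with compound at 1 μM to 0.1 nM final in 0.1% DMSO. After fixation, permeabilization and blocking, anti-HA staining was imaged by high-content reading; DC50 and Dmax (% of control) were derived.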

Another assay concerns the target T2, BRAF G466V (Homo sapiens, UniProt P15056, G466V).
T2 construct: expressed in transfected cells
Nature of the assay: Cellular assay of target protein degradation, T-Rex 293 cells stably transfected with HA-BRAF G466V (HA immunofluorescence, high content imaging). The format is cell-based. The procedure, abridged: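 Cells expressing doxycycline-induced (0.75 ng/mL) HA-BRAF G466V were treated with compound at 30 nM to 3 pM in 0.1% DMSO for 24 hours at 37° C. After fixation and permeabilization, HA was immunostained and quantified by high content imaging to derive DC50 and Dmax.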

Where [1] appears, read: half maximal degradation, T-Rex 293 HA-BRAF V600E; read-out: BRaf V600E DC50.
Setting [2] is: maximum degradation observed, T-Rex 293 HA-BRAF V600E.
The mark [3] stands for this setting: half maximal degradation, T-Rex 293 HA-BRAF G466V; read-out: BRaf G466V DC50.
The mark [4] stands for this setting: maximum degradation observed, T-Rex 293 HA-BRAF G466V.

T2 sequence (P15056 whole entry G466V): as the sequence (P15056 whole entry V600E) above, with G466V, E600V counted along it

Regarding `O=C1CC[C@@H](NC(=O)c2ccc(N3CCN(CCc4ccc(-c5cnc6[nH]cc(C(=O)c7c(F)ccc(NS(=O)(=O)N8CC[C@@H](F)C8)c7F)c6c5)cc4)CC3)cc2F)C(=O)N1` [Compound 28, 4-{4-[2-(4-{3-[2,6-difluoro-3-({[(3R)-3-fluoropyrrolidin-1-yl]sulfonyl}amino)benzoyl]-1H-pyrrolo[2,3-b]pyridin-5-yl}phenyl)ethyl]piperazin-1-yl}-N-[(3R)-2,6-dioxopiperidin-3-yl]-2-fluorobenzamide], the 50% degradation concentration (DC50) was 50 to 500 nM on BRAF V600E (setting [1]) and below 1 nM on BRAF G466V (setting [3]). Further, the values for the Dmax at BRAF V600E (setting [2]) and on BRAF G466V (setting [4]) were above 70% and 35 to 70%, respectively.
As for `O=C1CC[C@H](NC(=O)c2ccc(N3CCC(CN4CC5(C4)CN(c4ccc(-c6cnc7[nH]cc(C(=O)c8c(F)ccc(NS(=O)(=O)N9CC[C@@H](F)C9)c8F)c7c6)cc4)C5)CC3)cc2F)C(=O)N1` [Compound 29, 4-(4-{[6-(4-{3-[2,6-difluoro-3-({[(3R)-3-fluoropyrrolidin-1-yl]sulfonyl}amino)benzoyl]-1H-pyrrolo[2,3-b]pyridin-5-yl}phenyl)-2,6-diazaspiro[3.3]heptan-2-yl]methyl}piperidin-1-yl)-N-[(3S)-2,6-dioxopiperidin-3-yl]-2-fluorobenzamide], the DC50 lay within 5 to 50 nM at BRAF V600E (setting [1]) and 1 to 10 nM on BRAF G466V (setting [3]). The Dmax at BRAF V600E (setting [2]) and at BRAF G466V (setting [4]) was 35 to 70% in each case.
As to `O=C1CC[C@@H](NC(=O)c2ccc(N3CCC(CN4CC5(C4)CN(c4ccc(-c6cnc7[nH]cc(C(=O)c8c(F)ccc(NS(=O)(=O)N9CC[C@@H](F)C9)c8F)c7c6)cc4)C5)CC3)cc2F)C(=O)N1` [Compound 30, 4-(4-{[6-(4-{3-[2,6-difluoro-3-({[(3R)-3-fluoropyrrolidin-1-yl]sulfonyl}amino)benzoyl]-1H-pyrrolo[2,3-b]pyridin-5-yl}phenyl)-2,6-diazaspiro[3.3]heptan-2-yl]methyl}piperidin-1-yl)-N-[(3R)-2,6-dioxopiperidin-3-yl]-2-fluorobenzamide], the DC50 is above 500 nM at BRAF V600E (setting [1]) and 10 to 30 nM on BRAF G466V (setting [3]). This compound showed a maximal degradation (Dmax) at BRAF G466V (setting [4]) below 35%.
Turning to `O=C1CC[C@H](NC(=O)c2ccc(N3CC4(CN(CC5CCN(c6ccc(-c7cnc8[nH]cc(C(=O)c9c(F)ccc(NS(=O)(=O)N%10CC[C@@H](F)C%10)c9F)c8c7)cc6)CC5)C4)C3)cc2F)C(=O)N1` [Compound 31, 4-(6-{[1-(4-{3-[2,6-difluoro-3-({[(3R)-3-fluoropyrrolidin-1-yl]sulfonyl}amino)benzoyl]-1H-pyrrolo[2,3-b]pyridin-5-yl}phenyl)piperidin-4-yl]methyl}-2,6-diazaspiro[3.3]heptan-2-yl)-N-[(3S)-2,6-dioxopiperidin-3-yl]-2-fluorobenzamide], the results for the DC50 on BRAF V600E (setting [1]) and on BRAF G466V (setting [3]) were 5 to 50 nM and below 1 nM, respectively. The Dmax on BRAF V600E (setting [2]) and on BRAF G466V (setting [4]) was 35 to 70% in each case.
On to `O=C1CCC(N2Cc3cc(C(O)CN4CCN(c5ccc(-c6cnc7[nH]cc(C(=O)c8c(F)ccc(NS(=O)(=O)N9CC[C@@H](F)C9)c8F)c7c6)cc5)CC4)ccc3C2=O)C(=O)N1` (stereo partly drawn) [Compound 32, (3R)-N-(3-{5-[4-(4-{2-[2-(2,6-dioxopiperidin-3-yl)-1-oxo-2,3-dihydro-1H-isoindol-5-yl]-2-hydroxyethyl}piperazin-1-yl)phenyl]-1H-pyrrolo[2,3-b]pyridin-3-carbonyl}-2,4-difluorophenyl)-3-fluoropyrrolidine-1-sulfonamide], for which the half-maximal degradation concentration (DC50) at BRAF V600E (setting [1]) is below 5 nM; at BRAF G466V (setting [3]), 1 to 10 nM. The Dmax on BRAF V600E (setting [2]) and at BRAF G466V (setting [4]) was 35 to 70% each time.
In the case of `O=C1CC[C@H](NC(=O)c2ccc(C3CCN(CC4CCN(c5ccc(-c6cnc7[nH]cc(C(=O)c8c(F)ccc(NS(=O)(=O)N9CC[C@@H](F)C9)c8F)c7c6)cc5)CC4)CC3)cc2F)C(=O)N1` [Compound 33, 4-(1-{[1-(4-{3-[2,6-difluoro-3-({[(3R)-3-fluoropyrrolidin-1-yl]sulfonyl}amino)benzoyl]-1H-pyrrolo[2,3-b]pyridin-5-yl}phenyl)piperidin-4-yl]methyl}piperidin-4-yl)-N-[(3S)-2,6-dioxopiperidin-3-yl]-2-fluorobenzamide], the figures for the DC50 on BRAF V600E (setting [1]) and at BRAF G466V (setting [3]) were 5 to 50 nM and 1 to 10 nM, respectively. Also, the Dmax at BRAF V600E (setting [2]) was above 70%; at BRAF G466V (setting [4]) it was 35 to 70%.
For `O=C1CC[C@H](N2Cc3cc(N4CCC(OC5CCN(c6ccc(-c7cnc8[nH]cc(C(=O)c9c(F)ccc(NS(=O)(=O)N%10CC[C@@H](F)C%10)c9F)c8c7)cc6)CC5)CC4)ccc3C2=O)C(=O)N1` [Compound 34, (3R)-N-{3-[5-(4-{4-[(1-{2-[(3S)-2,6-dioxopiperidin-3-yl]-1-oxo-2,3-dihydro-1H-isoindol-5-yl}piperidin-4-yl)oxy]piperidin-1-yl}phenyl)-1H-pyrrolo [2,3-b]pyridine-3-carbonyl]-2,4-difluorophenyl}-3-fluoropyrrolidine-1-sulfonamide] the same measures were 50 to 500 nM, 1 to 10 nM, 35 to 70% and 35 to 70%.
The like results for `O=C1CC[C@@H](N2Cc3cc(N4CCC(OC5CCN(c6ccc(-c7cnc8[nH]cc(C(=O)c9c(F)ccc(NS(=O)(=O)N%10CC[C@@H](F)C%10)c9F)c8c7)cc6)CC5)CC4)ccc3C2=O)C(=O)N1` [Compound 35, (3R)-N-{3-[5-(4-{4-[(1-{2-[(3R)-2,6-dioxopiperidin-3-yl]-1-oxo-2,3-dihydro-1H-isoindol-5-yl}piperidin-4-yl)oxy]piperidin-1-yl}phenyl)-1H-pyrrolo [2,3-b]pyridine-3-carbonyl]-2,4-difluorophenyl}-3-fluoropyrrolidine-1-sulfonamide] were, in that order, 5 to 50 nM, 1 to 10 nM, 35 to 70% and above 70%.
Regarding `O=C1CCC(N2Cc3cc(C4CCN(CC5CCN(c6ccc(-c7cnc8[nH]cc(C(=O)c9c(F)ccc(NS(=O)(=O)N%10CC[C@@H](F)C%10)c9F)c8c7)cc6F)CC5)CC4)ccc3C2=O)C(=O)N1` (stereo partly drawn) [Compound 36, (3R)—N-[3-(5-[4-[4-([4-[2-(2,6-dioxopiperidin-3-yl)-1-oxo-3H-isoindol-5-yl]piperidin-1-yl]methyl)piperidin-1-yl]-3-fluorophenyl]-1H-pyrrolo[2,3-b]pyridine-3-carbonyl)-2,4-difluorophenyl]-3-fluoropyrrolidine-1-sulfonamide], the Dmax at BRAF V600E (setting [2]) and at BRAF G466V (setting [4]) was 35 to 70% each time. The DC50 is 5 to 50 nM at BRAF V600E (read-out: BRaf V600E DC50; half maximal degradation, T-Rex 293 HA-BRAF V600E) and below 1 nM at BRAF G466V (read-out: BRaf G466V DC50; half maximal degradation, T-Rex 293 HA-BRAF G466V).
Consider `O=C1CC[C@@H](NC(=O)c2ccc(N3CC4(CN(CC5CCN(c6ccc(-c7cnc8[nH]cc(C(=O)c9c(F)ccc(NS(=O)(=O)N%10CC[C@@H](F)C%10)c9F)c8c7)cc6)CC5)C4)C3)cc2F)C(=O)N1` [Compound 37, 4-(6-{[1-(4-{3-[2,6-difluoro-3-({[(3R)-3-fluoropyrrolidin-1-yl]sulfonyl}amino)benzoyl]-1H-pyrrolo[2,3-b]pyridin-5-yl}phenyl)piperidin-4-yl]methyl}-2,6-diazaspiro[3.3]heptan-2-yl)-N-[(3R)-2,6-dioxopiperidin-3-yl]-2-fluorobenzamide], for which the DC50 at BRAF V600E (setting [1]) lay in the range of 5 to 50 nM; on BRAF G466V (setting [3]) it was 1 to 10 nM. The greatest degradation seen (Dmax) was below 35% at BRAF V600E (setting [2]) and 35 to 70% on BRAF G466V (setting [4]).
